From the supplement of paper PMC10307832

Legend:
Assay in all cases: relative viability (nuclei count vs DMSO), 5 days (fraction); higher = more cells survive
Daporinad + Olaparib = compound: O=C(/C=C/c1cccnc1)NCCCCC1CCN(C(=O)c2ccccc2)CC1 [Daporinad] + O=C(c1cc(Cc2n[nH]c(=O)c3ccccc23)ccc1F)N1CCN(C(=O)C2CC2)CC1 [Olaparib] (partner 8 µM)
In short: (§1)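 For relative viability, nuclei counts in treated wells were divided by those in vehicle wells. Lung cancer cell lines had been pin-tool dosed in 1536-well plates the day after seeding and cultured for 5 days, then fixed and stained in one step (final 0.05% Triton X-100, 1% formaldehyde, 1 ug/ml Hoechst) and imaged at 4×. Doses were one drug alone or a fixed anchor-drug dose plus five library-drug doses (not always all listed) in √10 steps, and values are duplicate-plate medians.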

R406 + Luminespib = compound: COc1cc(Nc2ncc(F)c(Nc3ccc4c(n3)NC(=O)C(C)(C)O4)n2)cc(OC)c1OC [R406] + CCNC(=O)c1noc(-c2cc(C(C)C)c(O)cc2O)c1-c1ccc(CN2CCOCC2)cc1 [Luminespib] (partner 0.01 µM)
In short: as §1

Daporinad + Pictilisib = compound: O=C(/C=C/c1cccnc1)NCCCCC1CCN(C(=O)c2ccccc2)CC1 [Daporinad] + CS(=O)(=O)N1CCN(Cc2cc3nc(-c4cccc5[nH]ncc45)nc(N4CCOCC4)c3s2)CC1 [Pictilisib] (partner 1 µM)
In short: as §1

R406 + Trametinib = compound: COc1cc(Nc2ncc(F)c(Nc3ccc4c(n3)NC(=O)C(C)(C)O4)n2)cc(OC)c1OC [R406] + CC(=O)Nc1cccc(-n2c(=O)n(C3CC3)c(=O)c3c(Nc4ccc(I)cc4F)n(C)c(=O)c(C)c32)c1 [Trametinib] (partner 0.02 µM)
In short: as §1

Cell Line	relative viability (Daporinad + Olaparib; first compound 0.0005 µM)	relative viability (Daporinad + Olaparib; first compound 0.001581 µM)	relative viability (Daporinad + Olaparib; first compound 0.005 µM)	relative viability (Daporinad + Olaparib; first compound 0.01581 µM)	relative viability (R406 + Luminespib; first compound 0.08 µM)	relative viability (R406 + Luminespib; first compound 0.253 µM)	relative viability (R406 + Luminespib; first compound 0.8 µM)	relative viability (R406 + Luminespib; first compound 2.53 µM)	relative viability (R406 + Luminespib; first compound 8 µM)	relative viability (Daporinad + Pictilisib; first compound 0.0005 µM)	relative viability (Daporinad + Pictilisib; first compound 0.001581 µM)	relative viability (Daporinad + Pictilisib; first compound 0.005 µM)	relative viability (Daporinad + Pictilisib; first compound 0.01581 µM)	relative viability (R406 + Trametinib; first compound 0.08 µM)	relative viability (R406 + Trametinib; first compound 0.253 µM)	relative viability (R406 + Trametinib; first compound 0.8 µM)	relative viability (R406 + Trametinib; first compound 2.53 µM)	relative viability (R406 + Trametinib; first compound 8 µM)
201T	0.802	0.856	0.807	0.806	1.08	1.06	1.07	1	0.655	0.657	0.675	0.682	0.635	0.696	0.72	0.726	0.674	0.679
A549	0.324	0.184	0.128	0.0773						0.548	0.529	0.61	0.469					
A-427	0.665	0.713	0.622	0.571	0.929	1	1.04	0.398	0.593	0.559	0.79	0.684	0.716	0.755	0.745	0.857	0.62	0.541
ABC-1	1	0.82	0.781	0.582		0.569	0.27	0.338	0.213	0.652	0.934	0.734	0.743					
BEN	0.827	1.02	1.02	0.914	0.365	0.343	0.22	0.214	0.392	0.624	0.62	0.597	0.776	0.974	0.992	1.24	1.17	0.897
CAL-12T	0.624	0.596	0.512	0.269	0.57	0.516	0.52	0.124	0.138	0.305		0.442	0.494	0.343	0.351	0.378	0.312	0.175
COR-L23	0.156	0.245	0.19	0.155	0.665	0.919	0.71	0.3	0.372	0.777	0.952	0.721	0.368	0.627	0.669	0.682	0.217	0.338
COR-L 105	0.637	0.66	0.61	0.591	0.757	0.972	0.658	0.551	0.768	0.348	0.364	0.36	0.537	0.444	0.497	0.432	0.459	0.395
Calu-6	0.495	0.433	0.391	0.268						0.917	0.907	0.81	0.421					
ChaGo-K-1	0.34	0.248	0.258	0.196	0.613	0.548	0.652	0.404	0.473	0.774	0.64	0.702	0.578	0.853	0.962	0.982	0.844	0.763
EBC-1	0.597	0.667	0.602	0.49						0.335	0.43	0.37	0.469					
EKVX	0.861	0.912	0.788	0.615	0.863	0.885	1.06	0.702	0.74	0.478	0.432	0.412	0.464	0.405	0.383	0.348	0.364	0.264
EMC-BAC-2	0.387	0.342	0.316	0.235	1.14	1.15	1.27	0.745	0.532	0.628	0.567	0.485	0.319	0.907	0.956	0.804	1.06	0.917
EPLC-272H	0.72	0.704	0.581	0.442	0.259	0.264	0.337	0.106	0.0888	0.295	0.382	0.387	0.436	0.324	0.333	0.305	0.166	0.21
H3255	0.534	0.58	0.526	0.594	1.04		0.827	0.69	0.731	0.46	0.488	0.507	0.469	0.549	0.693	0.563	0.577	0.487
HARA	0.726	0.425	0.466	0.28	0.51	0.638	1.06	0.483	0.193	0.329	0.568	0.436	0.371	0.745	0.629	0.878	0.794	0.13
HCC-15	0.67	0.642	0.467	0.35	0.289	0.518	0.295	0.298	0.465	0.664	0.8	0.79	0.856	0.392	0.385	0.406	0.415	0.331
HCC-44	0.962	1.06	1.04	0.985	0.975	0.911	1.2	0.458	0.274	0.643	0.658	0.706	0.657	1.04	1.1	1.12	0.984	0.966
HCC-78	0.531	0.786	0.649	0.559						0.217	0.145	0.166	0.259	0.757	0.687	0.749	0.504	0.424
HCC-366	0.334		0.189	0.095						0.14	0.167	0.152	0.201	0.342	0.411	0.42	0.234	0.0517
